Source: publication PMC12705613 (Frontiers in Microbiology, 2025)

Legend:
[1] = Metabolites detection in vivo in plasma, feces and urine (UHPLC-Q-TOF-MS); parameters: species or system rat; conditions: single oral losartan potassium 20 mg/kg
Experimental: For urine and feces, cumulative samples were collected over the following time intervals: 0–4, 4–8, 8–12, and 12–24 h after administration. The processing of the biological samples can be found in the Supplementary material.
The biological samples were processed as follows: For plasma, a total of 400 μL of pooled plasma was mixed by combining 50 μL aliquots from each time point. A 100 μL aliquot was mixed with 300 μL of methanol, vortexed for one minute, and centrifuged at 5,000 rpm for 10 minutes at 4°C [1]. In the case of urine, 1 mL was centrifuged at 4,000 rpm for 20 minutes at 4°C, and the supernatant was mixed with 2 mL of methanol, vortexed for one minute, and centrifuged at 12,000 rpm for 10 minutes at 4°C [2]. For fecal samples, 1.0 g of homogenized feces was extracted with 4 mL of methanol, sonicated in an ice-water bath for 20 minutes, and then centrifuged at 12,000 rpm for 10 minutes at 4°C [3]. Supernatants from the plasma, urine, and fecal extracts were evaporated under nitrogen gas, redissolved in methanol, and transferred to liquid chromatography vials. Samples were analyzed using UHPLC-Q-TOF-MS/MS for metabolite profiling.

in vivo = conditions: rat, in vivo, po, 20 mg/kg; for AUC(0-inf): AUC0-∞; for MRT last: MRT0-t; for MRT inf: MRT 0-∞; for half-life: t1/2z
Experimental: The pharmacokinetic study was described as follows.
The UHPLC-TQ-MS analysis was conducted on an LC-30 AD ultra high-performance liquid chromatograph (Shimadzu, Japan) connected to an AB 4500 (AB Sciex, United States) Triple Quadrupole Mass Spectrometer with an ESI source. Chromatographic separation was achieved on an Acquity UHPLC HSS T3 column (100 × 2.1 mm, 1.8 μm) at 40 °C, and the eluent was aqueous formic acid (100:0.1, v/v) (A) and acetonitrile with formic acid (100:0.1, v/v) (B) at a flow rate of 0.3 mL min^−1. Gradient elution differs in the calculation of residual content and pharmacokinetic experiments. MRM mode was employed. Data processing was performed using Analyst Software (AB Sciex). The UHPLC-TQ-MS method validation was conducted in terms of selectivity, linearity, carryover, accuracy and precision, matrix effect, extraction recovery, dilution integrity, and stability under various conditions, which was performed in line with the FDA guidelines for bioanalytical assays. More details were described in the Supplementary material method.
The comparisons of the relative abundance of the genera between different groups were performed using the Wilcoxon rank-sum test. Comparisons between WKY and SHRs before and after CRO treatment were conducted using either a t-test or one-way ANOVA, with p values < 0.05 considered statistically significant. […] Graphs were created using GraphPad Prism 8.0 software.
For the determination of drug remaining contents in the supernatant, the gradient elution was as follows: 0.1–0.5 min at 45% B; 0.5–1.0 min at 45–65% B; 1.5–4.0 min at 65–85% B; 4.0–4.5 min at 85% B; 4.5–4.6 min at 85%–45% B; 4.6–5.0 min at 45% B. For pharmacokinetics, the gradient elution was performed as follows: 0–0.5 min at 30% B; 0.5–1.5 min at 30–45% B; 1.5–5.0 min at 45–60% B; 5.0–7.0 min at 60–80% B; 7.0–8.0 min at 80% B; 8.1–10.0 min at 30% B. The injection volume was 5 μ L. The multiple reaction monitoring (MRM) mode was used to detect analytes and IS in the positive ion mode. The mass spectrometry parameters were set as follows: ion spray voltage was 5500 V, turbo spray temperature (TEM) of 550℃; nebulizer gas (gas 1) of 50 psi; heater gas (gas 2) of 50 psi and curtain gas of 40 psi. Nitrogen was kept as the nebulizer and auxiliary gas.

gut microbiota from SHRs = experiment: Anaerobic incubation of drug with fecal gut microbiota from SHRs; assay type: in vitro ADME, rat; conditions: for Qualitative analysis: metabolism to other compounds: SHR gut microbiota in vitro, UHPLC-Q-TOF-MS; for Remaining content: SHR gut microbiota, 40 μM drug, anaerobic 37 °C, mGAM
Experimental: Fresh fecal samples from WKYs and SHRs were collected and immediately transferred to an anaerobic chamber (90% N₂, 5% CO₂, 5% H₂). Fecal suspensions were prepared by homogenizing 1 g of feces in 15 mL of sterile phosphate-buffered saline containing 0.1% L-cysteine. […] Bacteria-free controls contained equivalent drug volumes consistently. […] Drug remaining content and non-target metabolites screen were detected by ultra-high performance liquid chromatography coupled with triple quadrupole mass spectrometry (UHPLC-TQ-MS) and ultra-high performance liquid chromatography with quadrupole time-of-flight mass spectrometry (UHPLC-Q-TOF-MS), respectively. The sample preparation process can be found in the Supplementary material. For UHPLC-Q-TOF-MS analysis, the MS parameters and IDA criteria can be seen in Supplementary Table S1.
The sample processing procedures were tailored to align with the experimental objectives. For qualitative metabolite profiling, supernatants from the co-incubation of bacteria and drugs were collected at designated time points, filtered using a 0.22 μm membrane, lyophilized, and reconstituted in 200 μL of methanol. After vortexing and centrifuging for 10 minutes at 4°C and 12,000 rpm, the supernatant was transferred to an LC vial, and 5 μL aliquot was injected into the UHPLC-Q-TOF-MS/MS. For quantitative analysis, 100 μL aliquots were taken from the co-incubation supernatant and spiked with 1,000 μL of methanol containing 500 ng/mL of irbesartan. Following one minute of vortexing and centrifugation at 12,000 rpm for 10 minutes, the resulting supernatant was transferred to an LC vial, and a 5μL aliquot was injected into the UHPLC-TQ-MS/MS.

Row | SMILES | Abundance in feces and plasma, SHRs vs WKYs [1] | Decrease of AUC0-∞ (in vivo; SHR compared with WKY) | MRT0-t (in vivo; SHR) | MRT 0-∞ (in vivo; SHR) | t1/2z (in vivo; SHR) | Cmax (in vivo; SHR, Cmax) | MRT last (in vivo; SHR) | MRT inf (in vivo; SHR) | Tmax (in vivo; SHR, Tmax) | half-life (in vivo; SHR) | Cmax (in vivo; WKY) | MRT0-t (in vivo; WKY) | AUC(0-t) (in vivo; WKY, AUC0-t) | AUC(0-inf) (in vivo; WKY) | MRT last (in vivo; WKY) | Qualitative analysis: metabolism to other compounds (gut microbiota from SHRs) | Remaining content (gut microbiota from SHRs; 0 h) | Remaining content (gut microbiota from SHRs; 12 h) | Remaining content (gut microbiota from SHRs; 24 h) | Remaining content (gut microbiota from SHRs; 48 h) | other results
1 | CCCCc1nc(Cl)c(C(=O)O)n1Cc1ccc(-c2ccccc2-c2nnn[nH]2)cc1 [E-3174] | lower in SHRs than in WKYs | 72.42% | 11.21 ± 0.73 h | 21.63 ± 10.07 h | 9.10 ± 8.85 h | 1800 ± 1110 ng/mL | 8.84 ± 1.59 h | 15.1 ± 8.39 h | 4.75 ± 2.56 h | 10.1 ± 5.59 h | 6985.09 ± 6023.88 ng/mL | 12.64 ± 1.23 h | 65000 ± 44100 ng·h/mL | 78300 ± 41100 ng·h/mL | 8.39 ± 2 h | neither losartan nor E-3174 was metabolized to other compounds | 38.21 ± 0.11 µM | 39.55 ± 2.13 µM | 35.95 ± 1.41 µM | 27.07 ± 6.32 µM | Tmax (in vivo; SHR): 7.00 ± 1.67 h; AUC(0-t) (in vivo; SHR, AUC0-t): 17600 ± 4270 ng·h/mL; AUC(0-inf) (in vivo; SHR): 21600 ± 3070 ng·h/mL
2 | CCCCc1nc(Cl)c(CO)n1Cc1ccc(-c2ccccc2-c2nn[nH]n2)cc1 [Losartan, Losartan potassium] | lower in SHRs than in WKYs | 50.24% | 7.64 ± 1.16 h | 12.00 ± 2.70 h | 6.04 ± 2.28 h | 4000 ± 1770 ng/mL | 6.79 ± 1.38 h | 9.65 ± 3.34 h | 0.25 h | 5.91 ± 3.72 h | 9331.32 ± 7242.24 ng/mL | 9.99 ± 0.84 h | 29900 ± 15400 ng·h/mL | 39200 ± 20400 ng·h/mL | 5.89 ± 2.1 h | neither losartan nor E-3174 was metabolized to other compounds | 37.62 ± 1.03 µM | 38.41 ± 2.14 µM | 33.51 ± 2.35 µM | 32.98 ± 2.19 µM | Abundance in urine, SHRs vs WKYs [1]: more abundant in urine; Decline of AUC0-t (in vivo; SHR compared with WKY): 39.88%; AUC0-∞ (in vivo; SHR): 19483.83 ± 4098.26 ng·h/mL; AUC(0-t) (in vivo; SHR): 18002.60 ± 2806.38 ng·h/mL; MRT 0-∞ (in vivo; WKY): 23.65 ± 16.03 h; t1/2z (in vivo; WKY): 13.67 ± 13.15 h; MRT inf (in vivo; WKY): 16.7 ± 19.2 h; half-life (in vivo; WKY): 13.6 ± 14.3 h
